Results published in patent publication US20240284907A1, “NOVEL DERIVATIVES OF NON-CODED AMINO ACIDS AND THEIR USE AS HERBICIDES” (FortePhest LTD., priority 2021, published 2024).

How the values were obtained:
Format in all cases: in vivo
[1] = test system: Seeds of Lettuce R. (Super-Jericho); experiment: Filter paper bioassay with lettuce seeds: germination and early plant development, Minimal Effective Concentration (MEC); conditions: lettuce seeds on filter paper, 0 to 1 mmol/l, visually assessed after 6 days
Method in brief: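 Non-sterilized Super-Jericho lettuce seeds, 10 per dish, on filter paper wetted with aqueous test solution at 0–1 mmol/l. Kept 48 h dark, then 4 days at 6/18 dark/light. MEC is the lowest concentration causing no germination or radicle/shoot malformation by visual scoring at day 6; at least two repeats.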

[2] = test system: Romaine lettuce (Lactuca sativa L.) plants; experiment: Post-emergence herbicidal activity on potted Romaine lettuce plants (soil or foliar application); conditions: lettuce at 2 to 3 leaves, two weeks after treatment
Description: (§1) The tests were performed on Romaine lettuce (Lactuca sativa L.) plants at the stage 2 to 3 leaves. The plants were grown in mini-pots packed with soil, dimensions 2×2×5 cm, one plant per mini-pot. Test compounds were dissolved in 0.1% aqueous solution water solution of Silwet adjuvant to final concentrations ranging from 0 (Control) to 0.0001%. The test compounds were applied on soil (1 ml per pot) or foliar with airbrush (0.1 ml per pot). Each concentration was tested on 20 plants. Two weeks after the treatment the herbicidal effects of the respective test material were visually evaluated (aboveground part and roots. Then the aboveground part of the plants was neatly cut and weighed (wet weight) to assess the growth inhibition caused by the test compound. The growth inhibition (GI) was calculated as following: […]
Where Mt and Mc are median wet weight of treated and control plants, respectively. In the context of the invention, the herbicidal effect was assessed by concentration of the compound causing more than 85% of Growth Inhibition (GI) or irreversible damage of the plants (Table 3). Herbicidal activity of selected DHAAs is summarized in Table 4 (soil application) and Table 5 (Foliar application).

[3] = test system: Seeds of Lettuce R. (Super-Jericho); experiment: Filter paper bioassay with lettuce seeds: germination, Fully Effective Concentration (FEC); conditions: lowest concentration mostly preventing lettuce seed germination, assessed after 6 days
From the text: Materials: Seeds of Lettuce R. (Super-Jericho, non-sterilized) were obtained from Ben Shahar Moshe Ltd., 99% purity. The test compounds listed in the Table 2 below were synthetized de novo or purchased from different vendors.
Filter Paper Bioassays with Lettuce seeds: The protocol is following Bertin et al. 2009 and Movellan et al. 2014 with specified modifications as described below.
Seeds were placed on Whatman no. 1 filter paper (Whatman, Middlesex, U.K.) in Petri dishes (10 seeds per plate) with 2.0 ml of aqueous solution of a test material in concentration ranged from 0 (control) to 1 mmol/l were placed in a tray tilted at 45°. The trays were kept in dark for 48 hours and then transferred to the growth chamber with 6/18 dark/light cycle for 4 days. Each experiment was performed at least with two repeats.
The development of plants' radicle and shoots were visually assessed 6 days after the beginning of the test to determine Fully Effective Concentration (FEC) of a test material. In the context of the invention, FED is defined as the lowest concentration level of a test material that mostly preventing seeds germination.

[4] = test system: Romaine lettuce (Lactuca sativa L.) plants; experiment: Comparison of NAA and DNAA: growth inhibition of potted Romaine lettuce plants; conditions: two weeks after treatment
Description: as §1, with “adjuvant. The test material where applied in rate” for “adjuvant to final concentrations ranging from”, “(Control), 0.01, 0.05, and 0.5 mg/pot.” for “(Control) to 0.0001%.”, “soil” for “soil (1 ml per pot)”
Where Mt and Mc are median wet weight of treated and control plants, respectively.

[5] = foliar application, 0.05 mg/pot
[6] = foliar application, 0.50 mg/pot

| Molecule | Score (activity score of Minimal Effective Concentration, MEC) [1] | Score (test material causing more than 85% of Growth Inhibition or irreversible plant damage) ([2]; foliar application) | FEC (Fully Effective Concentration) [3] [mM] | Score (test material causing more than 85% of Growth Inhibition or irreversible plant damage) ([2]; soil application) | Herbicidal effect, growth application (%) [4, 5] [%] | Herbicidal effect, growth application (%) [4, 6] [%] | Herbicidal effect, growth application (%) ([4]; soil application, 0.01 mg/pot) | Herbicidal effect, growth application (%) ([4]; soil application, 0.05 mg/pot) | Herbicidal effect, growth application (%) ([4]; soil application, 0.50 mg/pot) |
| --- | --- | --- | --- | --- | --- | --- | --- | --- | --- |
| 2,5,8,11,14-pentaoxahexadecan-16-yl 2-(2-chloro-1,3-thiazol-4-yl)-2,2-difluoroacetate [compound 5778] | very strong | moderate (0.5) | 5.000 | – | – | – | – | – | – |
| (6-bromopyridin-2-yl)methyl2-(2,5-dichlorothiophen-3-yl)-2,2-difluoroacetate [compound 5757] | Strong (0.01 mM) | – | 0.100 | strong (0.01 to 0.05) | – | – | – | – | – |
| (2-bromophenyl)methyl(2,5-dichlorothiophen-3-yl)(difluoro)acetate [compound 5772] | Strong (0.01 mM) | moderate (0.5) | 0.500 | strong (0.01 to 0.05) | – | – | – | – | – |
| NC(Cc1nc(Cl)sc1Cl)C(=O)O (centres unmarked) [compound 527] | – | – | – | – | 0 | 44 | 0 | 11 | 90 |
| 2-(2-methoxyethoxy)ethyl(2-chloro-1,3-thiazol-4-yl)(difluoro)acetate [compound 5746] | very strong | strong (0.01 to 0.05) | 0.001 | strong (0.01 to 0.05) | – | – | – | – | – |
| O=C(O)C(F)(F)c1ccsc1C(F)(F)F [compound 5728, difluoro[2-(trifluoromethyl)thiophen-3-yl]acetic acid] | Strong (0.01 mM) | strong (0.01 to 0.05) | 1.000 | strong (0.01 to 0.05) | – | – | – | – | – |
| O=C(OCc1ccccc1)C(F)(F)c1cc(Cl)sc1Cl [compound 5709, benzyl(2,5-dichlorothiophen-3-yl)(difluoro)acetate] | very strong | moderate (0.5) | 0.100 | – | – | – | – | – | – |
| 2-(2-methoxyethoxy)ethyl(2-chloro-1,3-thiazol-4-yl)(difluoro)acetate [compound 5771] | very strong | strong (0.01 to 0.05) | 0.050 | – | – | – | – | – | – |
| 2-(4-methylphenyl)-2-oxoethyl(2-chloro-1,3-thiazol-4-yl)(difluoro)acetate [compound 5738] | very strong | moderate (0.5) | 0.010 | strong (0.01 to 0.05) | – | – | – | – | – |
| 2-(2-bromo-1,3-thiazol-4-yl)-2,2-difluoroacetic acid [compound 5730] | very strong | strong (0.01 to 0.05) | 0.010 | strong (0.01 to 0.05) | – | – | – | – | – |
| NC(Cc1ccsc1Cl)C(=O)O (centres unmarked) [compound 516] | – | – | – | – | 0 | 0 | 0 | 0 | 38 |
| NC(Cc1cc(Cl)sc1Cl)C(=O)O (centres unmarked) [compound 517] | – | – | – | – | 0 | 29 | 0 | 25 | 75 |
| ethyl(2,5-dichloro-1,3-thiazol-4-yl)(difluoro)acetate [compound 5655] | Strong (0.01 mM) | strong (0.01 to 0.05) | 1.000 | strong (0.01 to 0.05) | – | – | – | – | – |
| O=C(Cc1ccc(Br)cc1)C(F)(F)c1csc(Cl)n1 [compound 5756, 3-(4-bromophenyl)-1-(2-chloro-1,3-thiazol-4-yl)-1,1-difluoropropan-2-one] | very strong | – | 0.010 | – | – | – | – | – | – |
| NCCc1cc(Cl)sc1Cl [compound 584, 2-(2,5-dichlorothiophen-3-yl) ethan-1-amine] | moderate | – | 0.500 | weak (1.0) | – | – | – | – | – |
| NC(Cc1ccnc(Br)c1)C(=O)O (centres unmarked) [compound 632] | – | – | – | – | 0 | 8 | 0 | 13 | 21 |
| NC(N)=NCCc1cc(Cl)sc1Cl [compound 5769, N″-[2-(2,5-dichlorothiophen-3-yl)ethyl]guanidine] | Strong (0.01 mM) | – | 0.100 | – | – | – | – | – | – |
| (4-bromophenyl)methyl(2,5-dichlorothiophen-3-yl)acetate [compound 5735] | strong.strong | – | 0.500 | – | – | – | – | – | – |
| 3-(2-chlorothiophen-3-yl)-3,3-difluoro-2-hydroxypropanenitrile [compound 5761] | Strong (0.01 mM) | – | 0.100 | strong (0.01 to 0.05) | – | – | – | – | – |
| (2-bromophenyl)methyl(2,5-dichlorothiophen-3-yl)(difluoro)acetate [compound 5747] | very strong | moderate (0.5) | 0.500 | moderate (0.5) | – | – | – | – | – |
| (4-bromophenyl)methyl(2,5-dichlorothiophen-3-yl)(difluoro)acetate [compound 5768] | Strong (0.01 mM) | strong (0.01 to 0.05) | 0.500 | moderate (0.5) | – | – | – | – | – |
| (6-bromopyridin-2-yl)methyl(2,5-dichlorothiophen-3-yl)acetate [compound 5759] | very strong | strong (0.01 to 0.05) | 0.010 | strong (0.01 to 0.05) | – | – | – | – | – |
